{"source": "patent US7608620B2", "about": "“LPAAT-β inhibitors and uses thereof” (Cell Therapeutics, Inc., priority 2000, dated 2009)", "note": "pIC50: −log10 of the molar value.", "data": [{"target": "T1, LPAAT-β (Homo sapiens, UniProt O15120)", "T1 construct": "the full-length human LPAAT-β cDNA was amplified by PCR; made in house; host or cells: Sf9 insect cells (baculovirus, pFastBac HTc); membrane fraction", "T1 sequence (O15120 24-278)": "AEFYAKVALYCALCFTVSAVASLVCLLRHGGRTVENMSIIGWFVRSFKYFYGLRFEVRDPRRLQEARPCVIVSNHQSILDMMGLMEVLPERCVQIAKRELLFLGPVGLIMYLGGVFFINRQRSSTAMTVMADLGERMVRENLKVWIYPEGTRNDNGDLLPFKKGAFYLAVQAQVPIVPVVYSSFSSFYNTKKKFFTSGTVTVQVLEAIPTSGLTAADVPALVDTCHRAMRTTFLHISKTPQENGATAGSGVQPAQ", "assay": "LPAATβ colorimetric assay (DTNB detection of released CoA)", "assay_type": "biochemical", "conditions": "Sf9 cell membrane overexpressing LPAAT-β", "protocol": "For the construction of Baculovirus expression vectors, the full-length human LPAAT-β cDNA was amplified by PCR from the DNA template pCE9.LPAAT-β (West et al., DNA Cell Biol. 16:691-701 (1997)) using the primers 5′-TGATATCCGAAGAAGATCTTATGGAGCTGTGGCCGTGTC-3′ (olpb1F; SEQ ID NO:3) and 5′-CAGGCTCTAG ACTACTGGGC CGGCTGCAC-3′ (olpb1R; SEQ ID NO:4). The ˜870 bp fragment generated was reamplified by PCR using the primers 5° CCTACGTCG ACATGGAACAAAAATTGATATCCGAAGAAGATC-3′ (olpb2F; SEQ ID NO:5) and 5′-CAGGCTCTAG ACTACTGGGC CGGCTGCAC-3′ (olpb1R; SEQ ID NO:6). The ˜890 bp fragment generated was then cleaved with Sal I and Xba I for insertion into pFastBac™ HTc vector (Life Technologies, Gaithersberg, Md.) between the Sal I and Xba I sites for the generation of the plasmid pFB.LPAAT-β. This plasmid was then transformed into E. coli DH10Bac™ (Life Technologies, Gaithersberg, Md.) for the generation of recombinant Bacmid DNA for transfection into HighFive (Invitrogen, San Diego, Calif.) or SF9 insect cells for the production of recombinant Baculovirus stocks using the protocol described in the Bac-to-Bac® Baculovirus Expression System (Life Technologies, Gaithersberg, Md.), a eukaryotic expression system for generating recombinant baculovirus through site- specific transposition in E. coli. Viral stocks harvested from the transfected cells can then be used to infect fresh insect cells for the subsequent expression of LPAAT-β fusion protein with a poly-histidine tag and a myc-epitope near its N-terminus. The membrane fraction from these Sf9 cells would be the source of LPAAT enzyme.\nFor the preparation of membranes From Sf9 Cells, all steps are performed on ice or at 4° C. Sf9 cell pellets (˜10^8 cells) were thawed and resuspended in 1-2 ml of buffer A (20 mM Hepes, pH 7.5, 1 mM DTT, 1 mM EDTA, 20% w/v glycerol, 1 mM Benzamidine, 1 μg/ml soybean trypsin inhibitor (SBTI), 1 μg/ml pepstatin A) w/o DTT but with 1 mM Pefabloc. The cells were lysed by sonication using a Branson Sonifier at output=2, duty cycle=2, 10 pulses each at 10 s. with the tip of small sonicator probe submerged but not touching the walls. DTT was then added to 1 mM from a 1 M stock. The samples were centrifuged at 1500 rpm for 5 min. The low speed supernatant was saved and centrifuged (TLA 100.3 rotor, polycarbonate tubes, 2 ml/tube or 1.5 ml/tube minimum) at 100000×g for 1 hr. The high speed pellet was resuspend in Buffer A with a probe sonicator (10 pulses @ output #2 and duty cycle 20%) as a source of LPAAT enzyme.\nLPAAT-β catalyzes the transfer of an acyl group from a donor such as acyl-CoA to LPA. The transfer of the acyl group from acyl-CoA to LPA leads to the release of free CoA, which can be reacted with the thiol reagent, 5,5′-dithiobis(2-nitrobenzoic acid) (DTNB). The reaction between DTNB and the free sulfhydryl group from CoA generates a yellow-colored product, 3-carboxylato-4-nitrothiophenolate (CNP), that absorbs at 413 nm. LPAAT-β derived from Sf9 cell membrane overexpressing LPAAT-β were resuspended in HEPES saline buffer (20 mM HEPES pH 7.5, 150 mM NaCl), 1 mg/ml BSA and 72 μl aliquots were distributed into 96-well microtiter plates. 8 μl of compound of interest at 200 μM dissolved in 100% DMSO was added into each well. 20 μl of 1 mM 18:1-CoA and 1 mM sn-1-18: 1 lysoPA was then added to each well to initiate the reaction and allowed to run at room temperature for 25 min. 100 μl of 1 mM DTNB in 100% ethanol was then added to each well to quench the reaction and for color development. The absorbance at 405 nm, measured using a spectrophotometer plate reader, is proportional to the activity of LPAAT-β in the sample. This colorimetric assay was used for the high throughput screening of LPAAT inhibitors. […] Compounds that gave a reading of less than 0.06 arbitrary units (indicated by arrow on right margin) were selected for further study.", "values": [{"smiles": "Clc1nc(Nc2ccccc2)nc(Nc2ccc3c(c2)OCO3)n1", "note": "[CT-32042, N-benzo[1,3]dioxol-5-yl-6-chloro-N′-phenyl-[1,3,5]triazine-2,4-diamine]", "pIC50": 6.70}, {"smiles": "CCCNc1nc(Cl)nc(Nc2ccc(Cl)cc2)n1", "note": "[CT-116988, 6-chloro-N-2-(4-chlorophenyl)-N-4-propyl-[1,3,5]triazine-2,4-diamine]", "pIC50": 6.80}, {"smiles": "COc1ccc(Nc2nc(Cl)nc(Nc3ccccc3)n2)cc1", "note": "[CT-31942, 6-chloro-N-(4-methoxyphenyl)-N′-phenyl-[1,3,5]triazine-2,4-diamine]", "pIC50": 6.40}, {"smiles": "COc1ccc(Nc2nc(Cl)nc(Nc3ccc(Cl)cc3)n2)cc1", "note": "[CT-31867, 6-chloro-N-(4-chlorophenyl)-N′-(4-methoxy-phenyl)-[1,3,5]triazine-2,4-diamine]", "pIC50": 6.12}, {"smiles": "CSc1nc(Nc2ccccc2)nc(Nc2ccc(Cl)cc2)n1", "note": "[CT-31888, N-(4-chlorophenyl)-6-methylsulfanyl-N′-phenyl-[1,3,5]triazine-2,4-diamine]", "pIC50": 5.51}, {"smiles": "CCCNc1nc(Nc2ccc(Cl)cc2)nc(OC)n1", "note": "[CT-117147, N-(4-chlorophenyl)-6-methoxy-N′-propyl-[1,3,5]triazine-2,4-diamine]", "pIC50": 5.42}, {"smiles": "Clc1nc(Nc2ccccc2)nc(Nc2ccc3c(c2)OCCO3)n1", "note": "[CT-32028, 6-chloro-N-(2,3-dihydrobenzo[1,4]dioxin-6-yl)-N′-phenyl-[1,3,5]triazine-2,4-diamine]", "pIC50": 6.70}, {"smiles": "Clc1nc(Nc2ccccc2)nc(Nc2ccc3c(c2)CCC3)n1", "note": "[CT-32099, 6-chloro-N-indan-5-yl-N′-phenyl-[1,3,5]triazine-2,4-diamine]", "pIC50": 6.19}, {"smiles": "Clc1ccc(Nc2nc(Cl)nc(Nc3ccc4c(c3)OCO4)n2)cc1", "note": "[CT-31978, N-benzo[1,3]dioxol-5-yl-6-chloro-N′-(4-chlorophenyl)-[1,3,5]triazine-2,4-diamine]", "pIC50": 6.00}]}]}
